Laboratory results: patent US12606538B2, “Benzo[b]selenophene sting regulator, preparation method and use thereof” (CHINA PHARMACEUTICAL UNIVERSITY, priority 2021, dated 2026)
≈ marks a conversion by molar mass, not a printed value. Where two headings read alike, the source gives them in different places.

What was measured:
Water solubility = assay type: physicochemical
Text: (§1) The test result was shown in the following table, with MSA2 (Science. 2020, 369, eaba6098) as a reference compound.

THP1 cells [1] = assay: Interferon β induction assay based on THP1 cells (ELISA); assay type: cell-based; settings: Homo sapiens, THP-1, compound 20 μM, 3.5 h, read-out: Secretion of IFNβ in THP1 cells, effect relative to 2′,3′-cGAMP at 20 μM (%)
Experimental: Secreted cytokine IFNβ was determined by ELISA. THP1 cells were inoculated in a 96-well plate (there was no serum contained in an RPMI 1640 medium), such that the number of cells in each well ranged from 5×10^5 to 7×10^5. A DMSO stock solution of 10 mM was prepared from a compound to be tested, diluted with a culture medium to a target concentration to be added into the 96-well plate containing cells (the final concentration of said compound was 20 μM, and the final volume of each well was 200 μL), and cultured at 37° C. in 5% CO2 for 3.5 h. The cells were collected at 4° C. and centrifuged at 1,000 rpm for 20 mins, and supernate was collected for ELISA determination. There were three repeated wells set in the assay. The result was shown in the following tablet, with 2′,3′-cGAMP as a positive control, where the test result was represented as a percentage of activity relative to 2′,3′-cGAMP at a concentration of 20 μM.

THP1-dual cells = assay: Luciferase assay based on THP1-dual cells; assay type: cell-based; settings: final concentration of compound 10 μL (so in the source), 24 h at 37° C.
Experimental: (§2) THP1-dual™ (Invivogen: thpd-nfis) cells or RAW-Lucia™ (Invivogen: rawl-isg) cells were diluted using a culture medium, and 180 μL of cell suspension was sucked and inoculated in a 96-well plate, such that each well contain 1×10^5 cells. 20 μL of a compound to be tested was added into the 96-well plate (the final concentration of said compound was […], and the final volume of each well was […]) and cultured at 37° C. for 24 h. 10 μL of supernatant was sucked into a new 96-well white plate, and 50 μL of a QUANT-Luc reagent was added. After full and even mixing, a microplate reader was used immediately for determination. There were three repeated wells set in the assay. The test result was represented as agitation fold and calculated by (test well−blank well)/(negative well−blank well). The test result was in the following tablet, with 2′,3′-cGAMP as a positive control, where *** represented an agitation fold of 20 or more, ** represented an agitation fold of 10 to 20, and * represented an agitation fold of 1 to 10.

[2] = Stability of human plasma within 24 h; assay type: in vitro ADME
Text: as §1

LogP = assay type: physicochemical
Text: as §1

RAW-Lucia cells = assay: Luciferase assay based on RAW-Lucia cells; assay type: cell-based; settings: 24 h at 37° C.
Experimental: as §2

[3] = Stability of rat liver microsome within 2 h; assay type: in vitro ADME
Text: as §1

THP1 cells [4] = assay: THP1 cell growth inhibition activity; assay type: cell-based
Text: as §1

[5] = PBS, aqueous buffer, read-out: water solubility, PBS
[6] = water, read-out: water solubility, Water
[7] = stability of human plasma within 24 h
[8] = stability of rat liver microsome within 2 h

Compound	solubility (Water solubility; [5])	solubility (Water solubility; [6])	Emax at 20 µM (THP1 cells [1])	Agitation activity in luciferase assay, THP1-dual (agitation fold) (THP1-dual cells)	hPlasma @ 24 h (%) [2, 7]	logP (LogP; read-out: LogP)	Agitation activity in luciferase assay, RAW-Lucia (agitation fold) (RAW-Lucia cells)	RLM @ 2 h (%) [3, 8]	IC50 (THP1 cells [4]; Homo sapiens, THP-1)	water solubility, PBS (Water solubility)	water solubility, Water (Water solubility)	hPlasma @ 24 h (%) [2]	logP (LogP)	RLM @ 2 h (%) ([3]; rat, microsomes, 2 h)	IC50 (THP1 cells [4])
COc1cc2cc(C(=O)CCC(=O)O)[se]c2cc1OC [I-1, 4-(5,6-dimethoxybenzo[b]selenophene-2-yl)-4-oxobutanoic acid]	1900 µg/mL (≈ 5570 µM)	36 µg/mL (≈ 106 µM)	259%	*** (*** represented an agitation fold of 20 or more)	>90%	2.5	*** (*** represented an agitation fold of 20 or more)	>90%	> 100 µM	–	–	–	–	–	–
COc1cc2cc(C(=O)CC(C)C(=O)O)[se]c2cc1OC (stereo not drawn) [I-2, 4-(5,6-dimethoxybenzo[b]selenophene-2-yl)-2-methyl-4-oxo-butanoic acid]	1000 µg/mL (≈ 2810 µM)	30 µg/mL (≈ 84.4 µM)	245%	*** (*** represented an agitation fold of 20 or more)	>90%	2.4	*** (*** represented an agitation fold of 20 or more)	>90%	> 100 µM	–	–	–	–	–	–
CCC(CC(=O)c1cc2cc(OC)c(OC)cc2[se]1)C(=O)O (stereo not drawn) [I-14, 4-(5,6-dimethoxybenzo[b]selenophene-2-yl)-2-ethyl-4-oxo-butanoic acid]	700 µg/mL (≈ 1900 µM)	28 µg/mL (≈ 75.8 µM)	260%	*** (*** represented an agitation fold of 20 or more)	>90%	2.7	*** (*** represented an agitation fold of 20 or more)	>90%	> 100 µM	–	–	–	–	–	–
COc1cc2cc(C(=O)C3CC3C(=O)O)[se]c2cc1OC (stereo not drawn) [I-22]	–	–	115%	** (** represented an agitation fold of 10 to 20)	–	–	** (** represented an agitation fold of 10 to 20)	–	–	–	–	–	–	–	–
COc1cc2cc(C(=O)C3CCC3C(=O)O)[se]c2cc1OC (stereo not drawn) [I-23]	–	–	273%	*** (*** represented an agitation fold of 20 or more)	–	–	*** (*** represented an agitation fold of 20 or more)	–	–	–	–	–	–	–	–
COc1cc2cc(C(=O)C3CCCCC3C(=O)O)[se]c2cc1OC (stereo not drawn) [I-24]	–	–	142%	** (** represented an agitation fold of 10 to 20)	–	–	** (** represented an agitation fold of 10 to 20)	–	–	–	–	–	–	–	–
COc1cc2cc(C(=O)CCC(=O)O)sc2cc1OC [MSA2, reference compound]	–	–	–	–	–	–	–	–	–	400 µg/mL (≈ 1360 µM)	6 µg/mL (≈ 20.4 µM)	>90%	1.5	>90%	> 100 µM
